The values that follow come from US10864273B2, “Thiobase compounds for photodynamic therapy” (CASE WESTERN RESERVE UNIVERSITY, priority 2015, dated 2020).

Data set [1] in a line: Femtosecond broadband transient absorption spectroscopy of the thiothymine series (intersystem crossing, triplet yield). As to conditions: for τISC intersystem crossing lifetime: probe 600 nm. It is filed as physicochemical. As for the experimental part: Femtosecond transient absorption spectroscopy was performed using a Ti— Sapphire regenerative amplifier laser system (Libra-HE, Coherent, Inc.; 800 nm, 100 fs, 4.0 W at 1 kHz). 2.6 W of the 800 nm beam were used to pump an optical parametric amplifier (TOPAS, Quantronix/Light Conversion) to generate the excitation beam at selected wavelengths of 320, 335, and 360 nm. Contributions to the excitation beam from other wavelengths and polarizations were removed by a reflective wavelength filter (λ-filter) and a Glan-Taylor polarizer, respectively, and the polarization was randomized using a depolarizing plate in order to prevent rotational effects from contributing to the dynamics, as described in details elsewhere.
A Helios spectrometer (Ultrafast Systems, LLC.) was used for pump-probe measurements. A fraction of the fundamental (800 nm) beam from the Libra-HE was used to generate white light continuum (WLC). The Helios spectrometer uses an optical delay line with a maximum delay of ˜3 ns for the 800 nm beam, which was used to pump a continuously-moving 2 mm CaF2 plate for generation of the WLC broadband probe pulse covering the spectral range from ˜320-700 nm. The probe light was then passed through a 730 nm low-pass dichroic optical filter, so as to block residual fundamental beam and to avoid saturating the complementary metal-oxide-semiconductor (CMOS) detectors. The probe pulse was then split into two beams, both of which were recollimated and focused into the optical fibers leading to their respective CMOS detectors. In this setup, one of the beams serves as reference, while the other is used to probe the sample of interest. A synchronized chopper wheel was used to block every other pump pulse, such that the difference in absorption between two consecutive measurements gives the transient spectrum. The excitation beam was attenuated to 1 μJ/pulse at the sample using a neutral density optical filter before entering the spectrometer. The excitation pulse was focused to a beam diameter three times larger than that of the probe beam at the sample position. Detection time windows of 20 and 200 ps were used in this work.
All solutions were prepared using pH 7.4 aqueous phosphate buffer, with a total phosphate concentration of 16 mM. The solution was continuously stirred in a 2 mm optical path length quartz cell (Starna Cells, Inc.) using a Teflon-coated magnetic stirring bar so as to bring fresh sample to the pump-probe region for each measurement. The solution in the cuvette was replaced with a fresh sample, from the same stock solution, every 5-7 scans, so that all scans had no more than 5% decrease in absorbance at the lowest-energy absorption-band maximum as determined by steady-state absorption spectroscopy.
All broadband transient absorption data were corrected for group velocity dispersion (GVD) of the WLC using a home-made LabView program (National Instruments, Inc.) as previously described. 3 Analysis of transient absorption kinetics was performed in Igor Pro 6.32A (WaveMetrics, Inc.) using the target analysis method, as described previously, and a sequential kinetic model convoluted with an instrument response function of ˜200 fs (FWHM). The instrument response was determined from the coherence signal of neat methanol generated at the sample cell. Global fitting analysis was performed using 15 to 30 representative kinetic traces covering the full range of probe wavelengths. At least three independent datasets (i.e., recorded on three different days) were used in the analysis and all uncertainties are reported as twice the standard deviation of the average lifetime. Decay associated spectra shown in FIG. 7A were extracted from the global fitting analysis of the transient decay traces taken every third probe wavelength across the entire WLC range.

Data set [2] is described as follows: Singlet oxygen quantum yield by phosphorescence at 1270 nm, thiothymine series. As to conditions: for ΦΔ singlet oxygen quantum yield: O2-saturated acetonitrile solution, 355 nm excitation, phenalenone standard. The class given is physicochemical. As for the experimental part:
Singlet oxygen phosphorescence measurements were performed using a modified Fluorolog-3 spectrometer (HORIBA, Jobin Yvon) in conjunction with a NIR sensitive photomultiplier tube (H10330A-45, Hamamatsu). A 450 W Xe lamp was used for steady state excitation to record singlet oxygen phosphorescence spectra and a Spectra Physics GCR-150-30 Nd:YAG laser (355 nm, 7 ns pulse width) was used for pulsed excitation to collect singlet oxygen phosphorescence decay traces at 1270 nm, which were stored on a digital oscilloscope (TDS 360, Tektronics).
O2-saturated acetonitrile solutions of the thiobases and standard (phenalenone) with matching absorbance at 355 nm (O.D.=0.3 at 1 cm optical path length) were prepared. The measurements were performed in a 1×1 cm quartz cell. Singlet oxygen quantum yields were determined from the phosphorescence intensity at 1270 nm at the end of the laser pulse using phenalenone as standard (ΦΔ=0.98).
While ultrafast internal conversion to the ground state and the low triplet yield in thymidine provide the nucleobase with its high degree of photostability, the near-unity triplet yields in the thiothymine series account for their potent photo-sensitization properties. We have obtained evidence for significant photoreactivity of these triplet states by performing time-resolved energy transfer experiments to molecular oxygen, thus generating singlet oxygen, as monitored by its characteristic phosphorescence at 1270 nm (FIG. 3 and FIG. 4). The singlet oxygen quantum yields for 4tThd and 2,4dtThy were determined using phenalenone as a standard (ΦΔ=0.98) and are summarized in Table 1. It should be remarked that quantification of the singlet oxygen yield is one of the primary methods used to determine the efficacy of a prospective photosensitizer for phototherapeutic applications. To our knowledge, this is the first work to report the singlet oxygen yield of 2,4dtThy. […] Consistent with the spectroscopic analysis herein, the singlet oxygen yield of 2tThy is smaller than those of 4tThd and 2,4dtThy.

The nature of data set [3]: Steady-state absorption spectroscopy, thymine series. It is filed as physicochemical. The settings on record: phosphate buffer solution at pH 7.4. From the text:
2-thiothymine (2tThy, 98% purity) was obtained from AK Scientific, 4-thiothymidine (4tThd, 99% purity) was obtained from Carbosynth Ltd., and 2-thiothymidine (2tThd) and 2,4-dithiothymine (2,4dtThy) were obtained from Sigma Aldrich. All compounds were used as received. The purity of these compounds was ensured by using fluorescence spectroscopy and by comparison with the published absorption maxima and their corresponding extinction coefficients. Phosphate buffer solutions were freshly prepared using 0.12 g of sodium dihydrogen phosphate and 0.089 g of disodium hydrogen phosphate dissolved in 100 mL of ultrapure water and adjusted to pH 7.4 using a 2 M NaOH solution. Steady-state absorption spectra were measured using a Cary 100 Bio spectrometer. All absorption spectra were corrected for the solvent background by subtraction of the absorption of the solvent.
Specifically, sulfur substitution of the C2 carbonyl in thymine results in about a 10 nm redshift in the absorption maximum, whereas substitution at the C4 position results in a redshift of about 70 nm. Remarkably, double-substitution results in about a 100 nm redshift of the lowest-energy absorption band of thymidine (ΔE=9905 cm^−1), without an appreciable change in the magnitude of the extinction coefficient at the corresponding wavelengths (1×10^4 M^−1 cm^−1). Replacement of an oxygen atom by a sulfur atom in a carbonyl bond is expected to shift the absorption spectrum to the red because the thiocarbonyl is weaker than the carbonyl bond and the excited electronic states in thiocarbonyl compounds are typically found at lower energies. However, the difference in bond strengths between a carbonyl and thiocarbonyl bond cannot solely explain the large spectral shift observed between 2tThy/2tThd and 4tThd. Furthermore, the redshift in the absorption spectrum of 2,4dtThy cannot simply be expressed as a linear combination of the absorption spectra of the 2tThy/2tThd and 4tThd derivatives. […] Glycosylation of 2tThy, generating 2tThd, results in a 2 nm redshift in the absorption maximum and about 2-fold increase in the molar absorptivity coefficients (FIG. 1B). The same effect has been previously documented in the natural bases and in other thiobases. Therefore, glycosylation of 2,4dtThy to form 2,4-dithiothymidine is expected to redshift the absorption spectrum slightly and to increase the molar absorptivity coefficients.

A short description of data set [4]: Estimated maximum UVA treatment depth in tissue from absorption cutoff and penetration depth curve. The settings on record: cutoff ε=1000 M^−1 cm^−1. From the text: Longer wavelengths of light are able to penetrate deeper into tissues due to less scattering and reduced absorption by natural biomolecules (FIG. 5). Therefore, the redshifted absorption of 2,4dtThy as compared to 4tThd opens up the possibility for it to be effectively used as a photosensitizer in deeper tissue UVA-activated therapies. The maximum treatment depth for these two compounds was estimated by defining an arbitrary absorption cutoff of ε=1000 M^−1 cm^−1 (i.e., 371 nm for 4tThd and 395 nm for 2,4dtThy; FIG. 5). […] In order to account for this, the area under the penetration depth curve (FIG. 5) was integrated up to the respective absorption cutoff for each compound. Using this integration method the total increase in treatment depth of 2,4dtThy relative to 4tThd was determined to be about 67%. This increase likely serves as an upper bound limit for the actual relative increase because the molar absorptivity coefficients of the compounds will no doubt play a role. However, because the absorption of radiation at a given wavelength is not only dependent on a photosensitizer's molar absorptivity coefficients but also on its concentration in the tissue, our best estimation is that 2,4dtThy could facilitate UVA-activated treatment in tissues 23 to 67% deeper than those that can be effectively treated by 4tThd.

The conditions of data set [5]: pH 7.4 phosphate buffer solution; previously reported values; cited from earlier work.
For data set [6] the following is noted: cited from earlier work.
Data set [7] relates to cancerous cell lines. As to conditions: in conjunction with a low dose of UVA radiation; in vitro; cited from earlier work.
The test system of data set [8] is bladder cancer. The settings on record: in conjunction with a low dose of UVA radiation; animal models; cited from earlier work.
The subject of data set [9] is 3D human skin models. The settings on record: in conjunction with a low dose of UVA radiation; lower epidermis of 3D human skin models; cited from earlier work.
The conditions of data set [10]: O2-saturated acetonitrile solution; previously measured / standard value; cited from earlier work.
The conditions of data set [11]: O2-saturated acetonitrile; literature / standard value; cited from earlier work.
The mark [12] stands for this setting: pH 7.4 phosphate buffer solution.

Each structure is given as a SMILES string. Like-named read-outs stand apart in the source and are kept apart here.

Take `Cc1c[nH]c(=S)[nH]c1=S` [2,4dtThy, 2,4-dithiothymine]: in [1], the “increase in rate of intersystem crossing going from 2-thiothymine” value stood at 3.5 fold, the “intersystem crossing rate increase relative to Thd” value is reported as 4.2 fold and the triplet yield entry is “approximately 90%”. In addition, in data set [1] (setting [12]), the “ΦT triplet quantum yield” value is reported as above 0.9 and the “τISC intersystem crossing lifetime” value stood at 180±40 fs. Further, in data set [2], the “1O2 yield lower than that of the corresponding thiouracil derivative” value stood at 6%, the singlet oxygen yield is recorded as around 50% and the “ΦΔ singlet oxygen quantum yield” value came out at 0.46 ± 0.02. For the same compound, in data set [3], the “maximum of lowest-energy absorption band” value stood at 363 nm and the “ε at maximum of lowest-energy absorption band” value is given as “≈ 9.7×10^3 M^−1 cm^−1”. Moreover, the “wavelength at arbitrary absorption cutoff” value in data set [4] is given as 395 nm.
Consider `Cc1cn([C@H]2C[C@H](O)[C@@H](CO)O2)c(=O)[nH]c1=S` [4tThd, 4-thiothymidine], for which the “intersystem crossing rate increase relative to Thd” value in [1] stood at 3.2 fold. Besides, in data set [1] (setting [12]), the “τISC intersystem crossing lifetime” value is 240 ± 20 fs. In addition, in data set [2], the “1O2 yield lower than that of the corresponding thiouracil derivative” value is 14% and the “ΦΔ singlet oxygen quantum yield” value is recorded as 0.42 ± 0.02. Moreover, the “wavelength at arbitrary absorption cutoff” value in data set [4] was 371 nm. Further, in [5], the “ΦT triplet quantum yield” value is recorded as 0.85 ± 0.15. Moreover, in data set [6] (at 520 nm, previously reported, own determination in agreement), the triplet-triplet extinction coefficient is 2500 ± 700 M⁻¹ cm⁻¹. The “reported triplet yield of the reference compound” value in data set [6] (reference for relative actinometry) is 1.0±0.1. Besides, the “killing of cancerous cell lines” value in data set [7] is “effectively kill cancerous cell lines in vitro”. Moreover, the “treatment of bladder cancer” value in [8] is given as “treat bladder cancer in animal models”. In addition, the “induction of cytotoxic lesions” value in data set [9] was “induce cytotoxic lesions in the lower epidermis of 3D human skin models”.
Take `O=C1C=Cc2cccc3cccc1c23` [phenalenone]: the “ΦΔ singlet oxygen quantum yield” value in [10] and in data set [11] was 0.98 each time.
